Data published in patent US10053471B2, “Azabenzimidazole derivatives” (Boehringer Ingelheim International GmbH, priority 2015, dated 2018).

Target: AMPK α1β1γ1 (Homo sapiens (Human), UniProt Q13131+Q9Y478)
Assay: in vitro AMPK activation assay (ADP Glo Luminescence Kinase test)
Assay type: biochemical
Conditions: for Emax: maximal achievable activation in the tested concentration range, percent of control max (positive control without test substance = 100%), read-out: AMPK α1β1γ1 PoCmax; for EC50: recombinant human AMPK alpha1/beta1/gamma1, ADP-Glo luminescence read-out
Description: Recombinant human AMPK (containing subunits alpha1, beta1 and gamma1) was obtained from a baculovirus expression system. The 3 subunits were expressed together, affinity-purified via a GST-tag fused to the alpha 1 subunit and deep-frozen in storage buffer (50 mM Tris-HCl pH 8, 300 mM NaCl, 1 mM TCEP and 10% glycerol) at −80° C. until use. The activity of the AMPK protein was determined using the ADP Glo® Luminescence Kinase test (Promega; V9103X). In this homogeneous test the amount of ADP formed by the kinase reaction is quantified by a luciferin-luciferase reaction using luminescence as read-out. The luminescence signal obtained correlates with the amount of ADP resulting from the kinase reaction and thus correlates with the activity of the protein kinase.
The test compounds were dissolved in 100% DMSO at a concentration of 10 mM and in a first step diluted in DMSO to a concentration of 5 mM, followed by serial dilution steps in 100% DMSO. Dilution factor and number of dilution steps may vary. Typically 8 different concentrations by 1:5 dilutions were prepared, further dilutions of the substances were carried out with test buffer (20 mM Hepes (pH 7.0), 15 mM MgCl2, 0.025% BSA, 0.01% Brij 35) until a concentration was reached which was 5 times above the final test concentration. 2 μl aliquots of these dilutions were transferred into a 384-well Optiplate (Perkin Elmer, #6007290). Typically the start concentration for serial dilutions in the assay is 10 μM. Typically AMPK was diluted to 25 μg/ml in the test buffer and 4 μl of this dilution were used in the kinase test (final concentration of AMPK is 10 μg/ml in a total volume of 10 μl for the kinase reaction). Kinase concentrations may vary depending on activity of the preparation batches. After 10 minutes incubation at room temperature 4 μl of a mix containing 2.5 μM substrate (H-His-Met-Arg-Ser-Ala-Met-Ser-Gly-Leu-His-Leu-Val-Lys-Arg-Arg-OH Trifluoroacetate salt/HMRSAMSGLHLVKRR from Bachem, Cat. No. H5938) and 75 μM ATP in test buffer were added to each well and the incubation was continued for 60 minutes at room temperature.
Positive controls are the reaction mixtures that contain no test substance; negative controls (blanks) are reaction mixtures that contain no AMPK enzyme.
After 60 minutes, 10 μl ADP-Glo® solution (ADP-Glo Reagent #V912B Promega) (heated to room temperature) were added to each well and incubation was continued for 40 minutes. Then 20 μl Kinase detection mix (Detection Buffer #V913B Promega; Kinase Detection Substrate #V914B Promega) were added and incubated for additional 40 minutes at room temperature.
All incubations were done in sealed plates in the dark.
The plates were read with an Envision Luminescence Reader (Perkin-Elmer).
Data Evaluation and Calculation:
The output file of the reader is a csv file that contains the well number and measured RLU. For data evaluation and calculation, the measurement of the negative control was set as 0% control and the measurement of the positive control was set as 100% control. Based on these values the % value for the measurement of each substance concentration was calculated using Assay Explorer software (Accelrys). Activating compounds achieve % of control values above 100%. The IC50 values were calculated from the % control values using Assay Explorer software. Calculation: [y=(a−d)/(1+(x/c)^b)+d], a=low value, d=high value; x=conc M; c=IC50 M; b=hill; y=% ctrl. The maximal achievable activation of a compound in the tested concentration range is reported as percent of control max (PoCmax).

Chain of AMPK α1β1γ1 (Q13131 whole entry): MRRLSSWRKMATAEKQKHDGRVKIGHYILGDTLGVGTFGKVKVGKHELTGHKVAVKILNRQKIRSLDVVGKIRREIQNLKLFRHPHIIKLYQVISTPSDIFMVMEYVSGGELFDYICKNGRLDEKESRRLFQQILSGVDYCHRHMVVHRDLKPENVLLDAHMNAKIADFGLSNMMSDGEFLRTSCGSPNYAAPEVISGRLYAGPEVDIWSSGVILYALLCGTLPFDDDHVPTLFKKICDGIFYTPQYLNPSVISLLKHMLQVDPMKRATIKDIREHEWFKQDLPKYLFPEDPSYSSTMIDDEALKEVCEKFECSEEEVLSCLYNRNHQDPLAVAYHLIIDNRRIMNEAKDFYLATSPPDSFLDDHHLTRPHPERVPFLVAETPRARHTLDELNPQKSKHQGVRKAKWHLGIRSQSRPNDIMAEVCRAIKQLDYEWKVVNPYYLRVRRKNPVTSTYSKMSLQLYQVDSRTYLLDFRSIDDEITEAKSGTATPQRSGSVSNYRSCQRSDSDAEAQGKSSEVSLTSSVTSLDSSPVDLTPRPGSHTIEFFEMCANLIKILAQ
Chain of AMPK α1β1γ1 (Q9Y478 whole entry): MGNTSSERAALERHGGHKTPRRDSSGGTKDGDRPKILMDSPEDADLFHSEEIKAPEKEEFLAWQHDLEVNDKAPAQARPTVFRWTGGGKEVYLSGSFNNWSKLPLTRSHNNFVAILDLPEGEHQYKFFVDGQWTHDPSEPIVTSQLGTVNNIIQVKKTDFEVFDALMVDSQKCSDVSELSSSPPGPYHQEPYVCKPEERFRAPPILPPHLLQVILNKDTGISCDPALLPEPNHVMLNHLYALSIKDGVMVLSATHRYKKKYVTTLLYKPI
Chain of AMPK α1β1γ1 (P54619 whole entry partner): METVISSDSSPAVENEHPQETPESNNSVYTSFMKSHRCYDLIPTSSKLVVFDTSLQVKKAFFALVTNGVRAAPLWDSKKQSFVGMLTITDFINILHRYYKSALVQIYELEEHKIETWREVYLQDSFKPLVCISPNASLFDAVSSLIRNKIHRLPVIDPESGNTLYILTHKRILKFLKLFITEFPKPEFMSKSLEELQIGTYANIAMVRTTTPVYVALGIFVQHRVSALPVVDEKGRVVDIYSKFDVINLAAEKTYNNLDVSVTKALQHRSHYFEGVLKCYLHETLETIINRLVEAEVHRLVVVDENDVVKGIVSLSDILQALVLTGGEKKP

Compound	Emax [%]	EC50 [nM]
CS(C)(=O)=Nc1cc(F)c(-c2ccc(-c3nc4[nH]c(O[C@@H]5CO[C@H]6[C@@H]5OC[C@H]6O)nc4cc3Cl)cc2)c(F)c1 [Example 2, ({4-[4-(2-{[(3R,3aR,6R,6aR)-6-Hydroxy-hexahydrofuro[3,2-b]furan-3-yl]oxy}-6-chloro-3H-imidazo[4,5-b]pyridin-5-yl)phenyl]-3,5-difluorophenyl}imino)dimethyl-λ^6-sulfanone]	496	115
CS(C)(=O)=Nc1cc(F)c(-c2ccc(-c3nc4[nH]c(O[C@@H]5CO[C@H]6[C@@H]5OC[C@H]6O)nc4cc3Cl)cc2)cc1F [Example 3, ({4-[4-(2-{[(3R,3aR,6R,6aR)-6-Hydroxy-hexahydrofuro[3,2-b]furan-3-yl]oxy}-6-chloro-3H-imidazo[4,5-b]pyridin-5-yl)phenyl]-2,5-difluorophenyl}imino)dimethyl-λ^6-sulfanone]	480	302
CS(C)(=O)=Nc1c(F)cc(-c2ccc(-c3nc4[nH]c(O[C@@H]5CO[C@H]6[C@@H]5OC[C@H]6O)nc4cc3Cl)cc2)cc1F [Example 4, ({4-[4-(2-{[(3R,3aR,6R,6aR)-6-Hydroxy-hexahydrofuro[3,2-b]furan-3-yl]oxy}-6-chloro-3H-imidazo[4,5-b]pyridin-5-yl)phenyl]-2,6-difluorophenyl}imino)dimethyl-λ^6-sulfanone]	421	3560
CS(C)(=O)=Nc1ccc(-c2ccc(-c3nc4[nH]c(O[C@@H]5CO[C@H]6[C@@H]5OC[C@H]6O)nc4cc3Cl)cc2)c(F)c1F [Example 6, ({4-[4-(2-{[(3R,3aR,6R,6aR)-6-Hydroxy-hexahydrofuro[3,2-b]furan-3-yl]oxy}-6-chloro-3H-imidazo[4,5-b]pyridin-5-yl)phenyl]-2,3-difluorophenyl}imino)dimethyl-λ^6-sulfanone]	490	450
CS(C)(=O)=Nc1cnc(-c2ccc(-c3nc4[nH]c(O[C@@H]5CO[C@H]6[C@@H]5OC[C@H]6O)nc4cc3Cl)cc2)c(F)c1 [Example 10, ({6-[4-(2-{[(3R,3aR,6R,6aR)-6-Hydroxy-hexahydrofuro[3,2-b]furan-3-yl]oxy}-6-chloro-3H-imidazo[4,5-b]pyridin-5-yl)phenyl]-5-fluoropyridin-3-yl}imino)dimethyl-λ^6-sulfanone]	479	193
COc1nc(-c2ccc(N=S(C)(C)=O)cc2)ccc1-c1nc2[nH]c(O[C@@H]3CO[C@H]4[C@@H]3OC[C@H]4O)nc2cc1Cl [Example 11, ({4-[5-(2-{[(3R,3aR,6R,6aR)-6-Hydroxy-hexahydrofuro[3,2-b]furan-3-yl]oxy}-6-chloro-3H-imidazo[4,5-b]pyridin-5-yl)-6-methoxypyridin-2-yl]phenyl}imino)dimethyl-λ^6-sulfanone]	423	1200
CS(C)(=O)=Nc1ccc(-c2ccc(-c3nc4nc(O[C@@H]5CO[C@H]6[C@@H]5OC[C@H]6O)[nH]c4cc3F)cc2)cc1 [Example 12, ({4-[4-(2-{[(3R,3aR,6R,6aR)-6-Hydroxy-hexahydrofuro[3,2-b]furan-3-yl]oxy}-6-fluoro-1H-imidazo[4,5-b]pyridin-5-yl)phenyl]phenyl}imino)dimethyl-λ^6-sulfanone]	608	109
CS(C)(=O)=Nc1ccc(-c2ccc(-c3nc4nc(O[C@@H]5CO[C@H]6[C@@H]5OC[C@H]6O)[nH]c4cc3F)cc2)c(F)c1 [Example 14, ({4-[4-(2-{[(3R,3aR,6R,6aR)-6-Hydroxy-hexahydrofuro[3,2-b]furan-3-yl]oxy}-6-fluoro-1H-imidazo[4,5-b]pyridin-5-yl)phenyl]-3-fluorophenyl}imino)dimethyl-λ^6-sulfanone]	484	68
COc1nc(-c2ccc(N=S(C)(C)=O)cc2F)ccc1-c1nc2[nH]c(O[C@@H]3CO[C@H]4[C@@H]3OC[C@H]4O)nc2cc1Cl [Example 15, ({4-[5-(2-{[(3R,3aR,6R,6aR)-6-Hydroxy-hexahydrofuro[3,2-b]furan-3-yl]oxy}-6-chloro-3H-imidazo[4,5-b]pyridin-5-yl)-6-methoxypyridin-2-yl]-3-fluorophenyl}imino)dimethyl-λ^6-sulfanone]	426	344
CS(C)(=O)=Nc1ccc(-c2cc(F)c(-c3nc4nc(O[C@@H]5CO[C@H]6[C@@H]5OC[C@H]6O)[nH]c4cc3F)c(F)c2)cc1 [Example 16, ({4-[4-(2-{[(3R,3aR,6R,6aR)-6-Hydroxy-hexahydrofuro[3,2-b]furan-3-yl]oxy}-6-fluoro-1H-imidazo[4,5-b]pyridin-5-yl)-3,5-difluorophenyl]phenyl}imino)dimethyl-λ^6-sulfanone]	475	74
CS(C)(=O)=Nc1ccc(-c2cc(F)c(-c3nc4nc(O[C@@H]5CO[C@H]6[C@@H]5OC[C@H]6O)[nH]c4cc3Cl)c(F)c2)cc1 [Example 17, ({4-[4-(2-{[(3R,3aR,6R,6aR)-6-Hydroxy-hexahydrofuro[3,2-b]furan-3-yl]oxy}-6-chloro-1H-imidazo[4,5-b]pyridin-5-yl)-3,5-difluorophenyl]phenyl}imino)dimethyl-λ^6-sulfanone]	475	84

Continued, values first:

Emax [%]	EC50 [nM]	Compound
540	284	CS(C)(=O)=Nc1ccc(-c2ccc(-c3nc4[nH]c(O[C@@H]5CO[C@H]6[C@@H]5OC[C@H]6O)nc4cc3Cl)cc2)cc1F [Example 1, ({4-[4-(2-{[(3R,3aR,6R,6aR)-6-Hydroxy-hexahydrofuro[3,2-b]furan-3-yl]oxy}-6-chloro-3H-imidazo[4,5-b]pyridin-5-yl)phenyl]-2-fluorophenyl}imino)dimethyl-λ^6-sulfanone]
538	60	CS(C)(=O)=Nc1ccc(-c2ccc(-c3nc4[nH]c(O[C@@H]5CO[C@H]6[C@@H]5OC[C@H]6O)nc4cc3Cl)cc2)c(F)c1 [Example 5, ({4-[4-(2-{[(3R,3aR,6R,6aR)-6-Hydroxy-hexahydrofuro[3,2-b]furan-3-yl]oxy}-6-chloro-3H-imidazo[4,5-b]pyridin-5-yl)phenyl]-3-fluorophenyl}imino)dimethyl-λ^6-sulfanone]
640	125	CS(C)(=O)=Nc1ccc(-c2ccc(-c3nc4[nH]c(O[C@@H]5CO[C@H]6[C@@H]5OC[C@H]6O)nc4cc3Cl)c(F)c2)cc1 [Example 7, ({4-[4-(2-{[(3R,3aR,6R,6aR)-6-Hydroxy-hexahydrofuro[3,2-b]furan-3-yl]oxy}-6-chloro-3H-imidazo[4,5-b]pyridin-5-yl)-3-fluorophenyl]phenyl}imino)dimethyl-λ^6-sulfanone]
659	255	CS(C)(=O)=Nc1ccc(-c2ccc(-c3nc4[nH]c(O[C@@H]5CO[C@H]6[C@@H]5OC[C@H]6O)nc4cc3Cl)cc2F)cc1 [Example 8, ({4-[4-(2-{[(3R,3aR,6R,6aR)-6-Hydroxy-hexahydrofuro[3,2-b]furan-3-yl]oxy}-6-chloro-3H-imidazo[4,5-b]pyridin-5-yl)-2-fluorophenyl]phenyl}imino)dimethyl-λ^6-sulfanone]
700	282	CS(C)(=O)=Nc1ccc(-c2ccc(-c3nc4[nH]c(O[C@@H]5CO[C@H]6[C@@H]5OC[C@H]6O)nc4cc3Cl)c(F)c2F)cc1 [Example 9, ({4-[4-(2-{[(3R,3aR,6R,6aR)-6-Hydroxy-hexahydrofuro[3,2-b]furan-3-yl]oxy}-6-chloro-3H-imidazo[4,5-b]pyridin-5-yl)-2,3-difluorophenyl]phenyl}imino)dimethyl-λ^6-sulfanone]
523		CS(=N)(=O)c1ccc(-c2ccc(-c3nc4[nH]c(O[C@@H]5CO[C@H]6[C@@H]5OC[C@H]6O)nc4cc3Cl)cc2)c(F)c1 (stereo partly drawn) [Example 13, {4-[4-(2-{[(3R,3aR,6R,6aR)-6-Hydroxy-hexahydrofuro[3,2-b]furan-3-yl]oxy}-6-chloro-3H-imidazo[4,5-b]pyridin-5-yl)phenyl]-3-fluorophenyl}(imino)methyl-λ^6-sulfanone]
